According to US20150065440A1 (Progen Pharmaceuticals Limited, priority 2007, published 2015):
Counter-ions that a name gives are not always drawn.

Experiments:
FGF-1 = FGF-1 (Homo sapiens, UniProt P05230); assay: Growth factor binding assay (SPR solution affinity), FGF-1; conditions: SPR, HBS-EP buffer, 25° C.; read-out: Kd FGF-1
Method: (§1) Binding affinities of compounds for the growth factors FGF-1, FGF-2 and VEGF were measured using a surface plasmon resonance (SPR) based solution affinity assay.^9 Heparin-coated sensorchips used for this assay were prepared via immobilisation of biotinylated BSA-heparin on a streptavidin-coated sensorchip, or via aldehyde coupling using either adipic acid dihydrazide or 1,4-diaminobutane.^9 For each Kd measurement, solutions were prepared containing a fixed concentration of protein and varying concentrations of the ligand in buffer. Ligands binding to FGF-1 and VEGF were measured in HBS-EP buffer (10 mM HEPES, pH 7.4, 150 mM NaCl, 3.0 mM EDTA and 0.005% (v/v) polysorbate 20), while binding to FGF-2 was measured in HBS-EP buffer containing 0.3 M NaCl. Prior to injection, samples were maintained at 4° C. to maximise protein stability. For each assay mixture, 50-200 μL of solution was injected at 5-40 μL/min and the relative binding response measured. All surface binding experiments were performed at 25° C. The surface was regenerated by injection of 40 μL of 4M NaCl at 40 μL/min, followed by injection of 40 μL of buffer at 40 μL/min.
(§2) Sensorgram data were analysed using the BIAevaluation software (BIAcore) and Kd values determined as previously described.^9 Where Kd values were measured in duplicate, the values represent the average of the duplicate measurements.

VEGF = molecular target: T1, VEGF (Homo sapiens, UniProt P15692); assay: Growth factor binding assay (SPR solution affinity), VEGF; conditions: HBS-EP buffer, 25° C.
T1 sequence (P15692 207-395): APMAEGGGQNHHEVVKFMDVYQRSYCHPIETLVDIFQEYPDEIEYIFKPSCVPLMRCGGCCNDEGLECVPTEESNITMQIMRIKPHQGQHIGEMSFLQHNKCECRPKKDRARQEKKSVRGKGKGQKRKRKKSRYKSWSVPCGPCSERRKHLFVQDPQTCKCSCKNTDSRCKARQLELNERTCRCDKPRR
Method: as §1, §2

[1] = system: normal pooled human plasma; assay: Anticoagulant activity, Heptest; conditions: 0.1 mg/mL in normal pooled human plasma
[2] = system: pooled normal human plasma; assay: Anticoagulant activity, APTT; conditions: 0.1 mg/mL in normal pooled human plasma
Method: APTT measurements were performed on a STAGO STA-Compact Coagulation Analyser using standard protocols according to the manufacturer's instructions. Unfractionated heparin (UFH) was used as a control.

FGF-2 = FGF-2 (Homo sapiens, UniProt P09038); assay: Growth factor binding assay (SPR solution affinity), FGF-2; conditions: SPR, HBS-EP buffer containing 0.3 M NaCl, 25° C.; read-out: Kd FGF-2
Method: as §1, §2

Chain of FGF-1 (P05230 whole entry, species assumed): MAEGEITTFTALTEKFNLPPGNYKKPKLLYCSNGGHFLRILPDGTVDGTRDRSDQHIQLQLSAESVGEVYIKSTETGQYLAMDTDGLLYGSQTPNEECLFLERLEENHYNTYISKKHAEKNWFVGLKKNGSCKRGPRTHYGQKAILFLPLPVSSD
Chain of FGF-2 (P09038 143-288, species assumed): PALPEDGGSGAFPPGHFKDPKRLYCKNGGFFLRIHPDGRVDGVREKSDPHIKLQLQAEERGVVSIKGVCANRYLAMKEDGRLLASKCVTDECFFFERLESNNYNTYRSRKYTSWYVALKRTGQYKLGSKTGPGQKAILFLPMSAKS

Row | Compound | Kd (FGF-1) [nM] | Kd (VEGF) [nM] | Heptest [1] [s] | APTT [2] [s] | Kd (FGF-2) [nM]
1 | CC(C)CCCC(C)C1CCC2C3CC=C4CC(OC5OC(COS(=O)(=O)O)C(OS(=O)(=O)O)C(OS(=O)(=O)O)C5OC5OC(COS(=O)(=O)O)C(OS(=O)(=O)O)C(OC6OC(COS(=O)(=O)O)C(OS(=O)(=O)O)C(OC7OC(COS(=O)(=O)O)C(OS(=O)(=O)O)C(OS(=O)(=O)O)C7OS(=O)(=O)O)C6OS(=O)(=O)O)C5OS(=O)(=O)O)CCC4(C)C3CCC12C [Compound 17, 3β-Cholesteryl 2,3,4,6-tetra-O-sodium sulfonato-α-D-mannopyranosyl-(1→3)-2,4,6-tri-O-sodium sulfonato-α-D-mannopyranosyl-(1→3)-2,4,6-tri-O-sodium sulfonato-α-D-mannopyranosyl-(1→2)-3,4,6-tri-O-sodium sulfonato-α-D-mannopyranoside] | 3.2 ± 0.5 | 24 ± 6 | – | – | –
2 | CC(C)CCCC(C)C1CCC2C3CCC4CC(OC5OC(COC6OC(COS(=O)(=O)O)C(OC7OC(COS(=O)(=O)O)C(OC8OC(COS(=O)(=O)O)C(OS(=O)(=O)O)C(OS(=O)(=O)O)C8OS(=O)(=O)O)C(OS(=O)(=O)O)C7OS(=O)(=O)O)C(OS(=O)(=O)O)C6OS(=O)(=O)O)C(OS(=O)(=O)O)C(OS(=O)(=O)O)C5OS(=O)(=O)O)CCC4(C)C3CCC12C [Compound 119, 3′-Cholestanyl 2,3,4,6-tetra-O-sulfo-α-D-glucopyranosyl-(1→4)-2,3,6-tri-O-sulfo-α-D-glucopyranosyl-(1→4)-2,3,6-tri-O-sulfo-β-D-glucopyranosyl-(1→6)-2,3,4-tri-O-sulfo-α-D-mannopyranoside, tridecasodium salt] | 5.9 ± 1.6 | 7.9 ± 0.7 | 28.6 | 57.1 | 286 ± 25
3 | CC(C)CCCC(C)C1CCC2C3CCC4CC(OCC(=O)NC5OC(COS(=O)(=O)O)C(OC6OC(COS(=O)(=O)O)C(OC7OC(COS(=O)(=O)O)C(OS(=O)(=O)O)C(OS(=O)(=O)O)C7OS(=O)(=O)O)C(OS(=O)(=O)O)C6OS(=O)(=O)O)C(OS(=O)(=O)O)C5OS(=O)(=O)O)CCC4(C)C3CCC12C (stereo not shown) [Compound 134] | 13 ± 3 | 1080 ± 200 | – | – | 630 ± 30
4 | CC(C)CCCC(C)C1CCC2C3CCC4CC(OC(C(OS(=O)(=O)[O-])C(OS(=O)(=O)O)C(OC5OC(COS(=O)(=O)O)C(OC6OC(COS(=O)(=O)O)C(OC7OC(COS(=O)(=O)O)C(OS(=O)(=O)O)C(OS(=O)(=O)O)C7OS(=O)(=O)O)C(OS(=O)(=O)O)C6OS(=O)(=O)O)C(OS(=O)(=O)O)C5OS(=O)(=O)O)C(COS(=O)(=O)O)OS(=O)(=O)O)[n+]5ccccc5)CCC4(C)C3CCC12C [Compound 140, 3′-Cholestanyl 2,3,4,6-tetra-O-sulfo-α-D-glucopyranosyl-(1→4)-2,3,6-tri-O-sulfo-α-D-glucopyranosyl-(1→4)-2,3,6-tri-O-sulfo-α-D-glucopyranosyl-(1→4)-((1-pyridinium-1-yl)-2,3,5,6-tetra-O-sulfo-D-glucoside, tridecasodium salt] | 1.3 ± 0.6 | 12 ± 2 | – | – | 380 ± 40
